Patent US11613533B2, “Compounds useful for inhibiting RET kinase” (Eli Lilly and Company, priority 2020, dated 2023)
Substitutions are numbered along the chain they refer to.

Experiments:
[1] = target: T1, wildtype RET kinase (N-terminal GST tagged recombinant human RET cytoplasmic domain, aa 658-end) (Homo sapiens, UniProt P07949); test: RET enzyme assay (HTRF KinEASE TK), wildtype; type: biochemical; details: 1 mM ATP, 60 min incubation at 22° C.
T1 construct: human RET cytoplasmic domain (aa 658-end); GST (N); purchased Eurofins 14-570M
T1 sequence (P07949 658-1114 limits assumed): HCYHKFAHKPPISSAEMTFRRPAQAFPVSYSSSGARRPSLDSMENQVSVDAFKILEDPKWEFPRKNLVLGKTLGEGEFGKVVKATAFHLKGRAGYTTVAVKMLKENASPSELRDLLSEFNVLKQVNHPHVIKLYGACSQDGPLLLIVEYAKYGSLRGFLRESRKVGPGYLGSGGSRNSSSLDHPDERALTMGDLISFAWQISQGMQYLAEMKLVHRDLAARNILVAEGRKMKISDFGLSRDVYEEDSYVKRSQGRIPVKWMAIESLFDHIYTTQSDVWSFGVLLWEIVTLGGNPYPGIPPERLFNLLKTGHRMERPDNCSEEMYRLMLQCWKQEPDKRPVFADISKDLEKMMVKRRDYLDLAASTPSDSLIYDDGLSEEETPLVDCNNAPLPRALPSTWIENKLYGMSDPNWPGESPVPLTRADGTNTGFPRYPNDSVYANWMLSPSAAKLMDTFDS
Description: (§1) Assay A: RET Enzyme Assay
(§2) Compounds of formulas I, II, or III are screened for their ability to inhibit wildtype, V804M, and G810S mutant RET kinase using CisBio's HTRF® KinEASE™TK assay technology. N-terminal GST tagged recombinant human RET cytoplasmic domain (aa 658-end) from Eurofins ([…]; Catalog No. 14-570M) or N-terminal GST tagged recombinant human V804M mutant RET cytoplasmic domain (aa 658-end) from Millipore (1.25 nM enzyme; Catalog No. 14-760) or N-Terminal GST-tagged recombinant human G810S (aa-658-end) (1.25 nM Enzyme; produced in insect cells) is incubated with 62.5 nM TK-substrate biotin (CisBio, part of Catalog No. 62TK0PEC) and 1 mM ATP along with test compound (0.4% final DMSO in the assay) in a 1× Cisbio enzymatic buffer consisting of […], 5 mM MgCl2, 0.04% BSA and 0.05% Tween20 in a volume of 10 μL. Compounds are typically prepared in a threefold serial dilution in DMSO and added to the assay to give the appropriate final concentration. After a 40-60 min (40 min for V804M, 60 min for WT and G810S) incubation at 22° C., the reaction is quenched by adding quench solution (10 μL) containing 7.8 nM Streptavidine-XL665 and 0.5×TK-ab-Cryptate in HTRF detection buffer (all from CisBio, part of Cat. No. 62TK0PEC). After a 60-80 min incubation (60 minutes for WT, 80 minutes for V804M and G810S) at 22° C., the extent of reaction is determined using a PHERastar plate reader via HTRF detection at excitation/emission 337/665 nm. Percent of inhibition is calculated with 0% inhibition referring to control conditions containing no compound (0.4% DMSO only) and 100% inhibition represented by conditions containing no enzyme. The % inhibition values are fit to a 4 parameter logistic curve, and the determined IC50 value is defined as the estimated concentration of inhibitor at the inflexion point of the fitted curve.

[2] = target: T2, G810S mutant RET kinase (N-Terminal GST-tagged recombinant human G810S, aa-658-end) (Homo sapiens, UniProt P07949, G810S); test: RET enzyme assay (HTRF KinEASE TK), G810S; type: biochemical; details: 1 mM ATP, 60 min incubation at 22° C.
T2 construct: recombinant human G810S (aa-658-end); GST (N); made in house; host or cells: insect cells
T2 sequence (P07949 658-1114 G810S limits assumed): T1 sequence (P07949 658-1114 limits assumed) with G153S
Description: as §1, §2

IC50 [1]: < 100 nM
IC50 [2]: < 100 nM
SMILES: CC(C(=O)Nc1cc(C(C)(C)C(C)(F)F)on1)c1ccc(-c2nn(C(C)C)c(N)c2C(N)=O)cc1 (single isomer, unassigned; isomer 2) [Example 76, 5-Amino-3-[4-(1-[[5-(3,3-difluoro-2-methylbutan-2-yl)-1,2-oxazol-3-yl]carbamoyl]ethyl)phenyl]-1-isopropylpyrazole-4-carboxamide, Isomer 2]
